From paper PMC9181887, “In Vitro Antithrombotic, Hematological Toxicity, and Inhibitor Studies of Protocatechuic, Isovanillic, and p-Hydroxybenzoic Acids from Maclura tricuspidata (Carr.) Bur” (Molecules, 2022)
Where two headings read alike, the source gives them in different places.

How the values were obtained:
Assay type in all cases: biochemical
human thrombin = molecular target: T1, human thrombin (Homo sapiens, UniProt P00734); experiment: Thrombin activity and kinetic/inhibitor assay
T1 construct: purchased Sigma-Aldrich
Method: (§1) To determine the thrombin activity, various concentrations of compounds were treated with 1 U human thrombin in 100 μL of 20 mM Tris-HCl, as previously described. The reaction solutions were incubated for 15 min at 37 °C. After the incubation, 1 mM chromogenic substrate for thrombin (S-2238, HD-Phe-Pip-Arg-p-nitroanilide) was added and incubated for 1 h at 37 °C. Absorbance was measured at 405 nm to determine the enzymatic activity. To determine FXa activity, various concentrations of the compounds were mixed with 1 U human FXa in 20 mM Tris-HCl (pH 7.4) in volume of 100 μL, followed by incubation for 15 min at 37 °C. After adding 1 mM N-benzoyl-Ile-Glu-Gly-Arg-p-nitroanilide, a highly specific chromogenic peptide substrate for FXa, the reaction solutions were incubated for 1 h at 37 °C. The residual activity of FXa was measured at 405 nm and is presented as a percentage of inhibition. To investigate FXIIIa activity, various concentrations of the compounds were mixed with 1 U human FXIIIa in 20 mM Tris-HCl (pH 7.4) in a volume of 100 μL, followed by, incubation for 15 min at 37 °C as previously described. The residual activity of FXIIIa was measured using casein and fibrinogen-HRP, according to the manufacturer’s instructions, and was presented as a percentage of inhibition. The negative control was generated by treatment with only thrombin, FXa, or FXIIIa without treatment with any compound.
(§2) Kinetic assays were performed using PA, IVA, and 4-HA for procoagulant proteases (thrombin and FXa) and fibrinoligase (FXIIIa). The kinetic constants were calculated using Lineweaver–Burk plots based on the initial reaction rates with different concentrations (0.1, 0.5, 1, and 2 mM) of each substrate for thrombin, FXa, and FXIIIa treated with or without the compounds (0.065, 0.13, 0.33, 0.65, and 1.30 mM [1–20 μg]) in a total volume of 100 μL. The Michaelis–Menten constant (Km) and maximal velocity (Vmax) were calculated from the x and y intercepts, respectively. […] The median inhibitory concentration (IC50) was defined as the concentration required to reach a 50% reduction in the activity of the three target factors. The Kik and Kiv inhibition constants were calculated using a previously described method. The inhibition type of the compounds against the three target factors was evaluated according to a previously described inhibition type definition.

human FXa = molecular target: T2, human FXa (Homo sapiens, UniProt P00742); experiment: FXa activity and kinetic/inhibitor assay
T2 construct: purchased Sigma-Aldrich
T2 sequence (P00742 235-488 limits assumed): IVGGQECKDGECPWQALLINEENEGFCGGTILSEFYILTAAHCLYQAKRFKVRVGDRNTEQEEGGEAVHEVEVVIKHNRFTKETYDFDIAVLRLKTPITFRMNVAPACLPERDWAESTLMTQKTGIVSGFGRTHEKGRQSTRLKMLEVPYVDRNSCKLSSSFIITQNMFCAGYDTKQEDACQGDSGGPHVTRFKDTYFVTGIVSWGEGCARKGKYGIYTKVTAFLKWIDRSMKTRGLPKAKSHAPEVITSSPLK
T2 sequence (P00742 41-179 limits assumed): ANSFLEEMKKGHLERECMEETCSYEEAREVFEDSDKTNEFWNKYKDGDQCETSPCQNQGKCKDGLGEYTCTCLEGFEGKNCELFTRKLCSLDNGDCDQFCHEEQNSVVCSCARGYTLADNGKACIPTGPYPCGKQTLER
Method: as §1, §2

human FXIIIa = molecular target: T3, human FXIIIa (Homo sapiens, UniProt P00488); experiment: FXIIIa activity and kinetic/inhibitor assay
T3 construct: purchased Sigma-Aldrich
T3 sequence (P00488 39-732 limits assumed): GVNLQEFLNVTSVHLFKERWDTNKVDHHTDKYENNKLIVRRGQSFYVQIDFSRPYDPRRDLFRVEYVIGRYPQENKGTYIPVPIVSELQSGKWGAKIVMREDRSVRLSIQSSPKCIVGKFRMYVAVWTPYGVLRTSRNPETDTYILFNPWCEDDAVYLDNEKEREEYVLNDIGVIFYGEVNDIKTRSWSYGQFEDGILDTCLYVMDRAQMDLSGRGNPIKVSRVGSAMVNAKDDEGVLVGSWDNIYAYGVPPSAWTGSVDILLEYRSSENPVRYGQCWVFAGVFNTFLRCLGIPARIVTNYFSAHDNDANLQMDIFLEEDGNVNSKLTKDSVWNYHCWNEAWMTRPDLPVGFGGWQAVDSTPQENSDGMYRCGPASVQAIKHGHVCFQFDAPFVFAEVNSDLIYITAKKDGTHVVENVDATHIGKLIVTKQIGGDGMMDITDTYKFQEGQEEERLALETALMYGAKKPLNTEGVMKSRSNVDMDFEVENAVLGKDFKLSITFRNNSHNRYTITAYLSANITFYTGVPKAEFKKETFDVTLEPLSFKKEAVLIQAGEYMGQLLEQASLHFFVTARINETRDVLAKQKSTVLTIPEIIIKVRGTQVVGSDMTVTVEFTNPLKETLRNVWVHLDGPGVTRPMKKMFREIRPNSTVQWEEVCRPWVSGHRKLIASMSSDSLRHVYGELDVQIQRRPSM
Method: as §1, §2

human plasma = experiment: Coagulation assay, APTT; conditions: 100 μg
Method: A coagulation assay was performed to evaluate the prolongation potential of the compounds in blood coagulation by measuring APTT, PT, and TT, as previously described. After pretreatment of the compounds with human plasma for 10 min, APTT, PT, and TT were determined by a coagulometer (Thrombostat 1) manufactured by Behnk Elektronik, Germany.

[1] = from Kik/Kiv ratio and Lineweaver–Burk plots
[2] = thrombin, compound 0.065 mM (1 μg)
[3] = thrombin, compound 0.13 mM (2 μg)
[4] = thrombin, compound 0.325 mM (5 μg)
[5] = thrombin, compound 0.65 mM (10 μg)
[6] = thrombin, compound 1.3 mM (20 μg)
[7] = FXIIIa, compound 0.065 mM (1 μg)
[8] = FXIIIa, compound 0.13 mM (2 μg)
[9] = FXIIIa, compound 0.325 mM (5 μg)
[10] = FXIIIa, compound 0.65 mM (10 μg)
[11] = FXIIIa, compound 1.3 mM (20 μg)

inhibition type against thrombin (human thrombin; [1]): uncompetitive inhibition type
activity of thrombin (human thrombin; highest concentration of each compound, p < 0.01): significantly decreased
IC50 (human thrombin; thrombin): 1700 µM
Ki (human thrombin; thrombin): 1700 µM
Kik/Kiv (human thrombin; thrombin): 1.2
Kcat (human thrombin; [2]): 100.59 ± 1.41 s⁻¹
Vmax (human thrombin; [2]): 0.349 ± 0.013 mU/min
Kcat (human thrombin; [3]): 98.38 ± 1.24 s⁻¹
Vmax (human thrombin; [3]): 0.341 ± 0.015 mU/min
Kcat (human thrombin; [4]): 91.57 ± 0.98 s⁻¹
Vmax (human thrombin; [4]): 0.317 ± 0.016 mU/min
Kcat (human thrombin; [5]): 89.25 ± 0.77 s⁻¹
Vmax (human thrombin; [5]): 0.309 ± 0.020 mU/min
Kcat (human thrombin; [6]): 78.83 ± 1.01 s⁻¹
Vmax (human thrombin; [6]): 0.273 ± 0.013 mU/min
Vmax value of thrombin decreased by, fold of non-treated (human thrombin; vs non-treated 0.381 ± 0.011 mU/min, compound 0.065–1.3 mM): 0.72–0.92 fold
Km value of thrombin reduced by, fold of non-treated (human thrombin; vs non-treated 0.566 ± 0.025 mM, compound 0.065–1.3 mM): 0.71–0.86 fold
Kcat values of thrombin reduced by, fold of non-treated (human thrombin; vs non-treated 109.87 ± 3.16 s^−1, compound 0.065–1.3 mM): 0.72–0.92 fold
FXa activity (human FXa; 1–20 μg, vs control, p < 0.05): significant reductions
IC50 (human FXa; FXa): 4010 µM
Kik/Kiv (human FXa; FXa): 5.3
Kcat (human FXa; FXa, compound 0.065 mM (1 μg)): 22.14 ± 0.22 s⁻¹
Vmax (human FXa; FXa, compound 0.065 mM (1 μg)): 0.60 ± 0.03 mU/min
Kcat (human FXa; FXa, compound 0.13 mM (2 μg)): 21.77 ± 0.26 s⁻¹
Vmax (human FXa; FXa, compound 0.13 mM (2 μg)): 0.59 ± 0.02 mU/min
Kcat (human FXa; FXa, compound 0.325 mM (5 μg)): 21.79 ± 0.44 s⁻¹
Vmax (human FXa; FXa, compound 0.325 mM (5 μg)): 0.59 ± 0.04 mU/min
Kcat (human FXa; FXa, compound 0.65 mM (10 μg)): 21.18 ± 0.42 s⁻¹
Vmax (human FXa; FXa, compound 0.65 mM (10 μg)): 0.57 ± 0.02 mU/min
Kcat (human FXa; FXa, compound 1.3 mM (20 μg)): 20.22 ± 0.37 s⁻¹
Vmax (human FXa; FXa, compound 1.3 mM (20 μg)): 0.55 ± 0.02 mU/min
Ki (human FXa; FXa, read-out: Ki): 3990 µM
Ki (human FXa; FXa, read-out: Kiv (inhibition constant using Vmax)): 109 µM
inhibition type against FXa (human FXa; [1]): non-competitive inhibition
FXIIIa activity (human FXIIIa; 1–20 μg, vs control, p < 0.05): significant reductions
IC50 (human FXIIIa; FXIIIa): 1960 µM
Ki (human FXIIIa; FXIIIa): 1960 µM
Kik/Kiv (human FXIIIa; FXIIIa): 6005.6
Kcat (human FXIIIa; [7]): 88.6 ± 0.10 s⁻¹
Vmax (human FXIIIa; [7]): 0.142 ± 0.04 mU/min
Kcat (human FXIIIa; [8]): 87.7 ± 0.09 s⁻¹
Vmax (human FXIIIa; [8]): 0.141 ± 0.04 mU/min
Kcat (human FXIIIa; [9]): 77.2 ± 0.05 s⁻¹
Vmax (human FXIIIa; [9]): 0.124 ± 0.03 mU/min
Kcat (human FXIIIa; [10]): 70.5 ± 0.07 s⁻¹
Vmax (human FXIIIa; [10]): 0.113 ± 0.03 mU/min
Kcat (human FXIIIa; [11]): 62.0 ± 0.06 s⁻¹
Vmax (human FXIIIa; [11]): 0.099 ± 0.04 mU/min
inhibition type against FXIIIa (human FXIIIa; [1]): non-competitive inhibition type
Structure (SMILES): O=C(O)c1ccc(O)cc1 [4-HA, 4-hydroxybenzoic acid]
APTT, fold of control (human plasma): 1.53 fold
activated partial thromboplastin time (APTT) (human plasma; control 39.5 ± 1.5 s, p < 0.01): 60.3 ± 5.6 s
